Assay results: patent US20030143586A1, “Genetic hypermutability of plants for gene discovery and diagnosis” (priority 2001, published 2003)

Tests used:
[1] = test system: Conyza canadensis field populations; details: cited from earlier work
[2] = test system: horseweed (Conyza canadensis); test: Glyphosate applied to horseweed plants to confirm sensitivity to the herbicide; format: in vivo
Protocol: Isolation and modification of the genomic DNA: Total horseweed (Conyza Canadensis) genomic DNA was isolated from 100 mg of leaves using Plant DNAZol as described by the manufacturer (Invitrogen). The typical yield was 10-20 μg DNA per preparation. Two different biotypes of horseweed were used as source of the DNA and were designated HR and HS.
Analysis of the DNA Marker: Horseweeds were either germinated from seeds or seedlings were transferred from the field into the greenhouse. DNAs from the genomes of HR and HS horseweeds were isolated. At the same time, glyphosate was applied at 2 lb active ingredient/acre rate to confirm the plants' sensitivity to the herbicide.

Question: With O=C(O)CNCP(=O)(O)O [Glyphosate, glyphosate] as the molecule, how does the “field populations naturally resistant to glyphosate” value [1] read?
Answer: The value was “approximately 15%”.

Question: What about the “response to glyphosate treatment” value ([2]; horseweed biotype designated HR (DNA source, Example 4)) of the same molecule?
Answer: The value was “tolerance”.

Question: What about the “response to glyphosate treatment” value ([2]; horseweed biotype designated HS (DNA source, Example 4)) of the same molecule?
Answer: Its value is “sensitive”.
